Where “and” joins values, the source holds several entries; their conditions need not be identical. Equal entries are not always repeated. Where two headings read alike, the source gives them in different places.
Tested on: phenylquinone induced writhing
Type: in vivo, male CF-1 mice
Conditions: for ED50 (95% Conf. Limits): p.o.; for ED50 (95% Conf. Limits) / Oral ED50 (95% Confidence Limits) / Oral Ed50: given alone; for Oral ED50 (95% Confidence Limits): Table II; for % Inhibition / No. Writhing Episodes: alone
Description: The phenylquinone was dissolved in 5% ethyl alcohol and distilled water, gently heated to 37° C. and kept in a brown stoppered bottle to prevent deterioration. The test compounds were administered orally, in rapid succession, in distilled water 15 minutes prior to the phenylquinone.
The means and standard deviations computed during this analysis were then analyzed by "parallel line bioassay" that compared the opiate alkaloid alone in graded doses against, in turn, each combination of a range of opiate alkaloid doses plus a constant dose of carbazole compound. […] The opiate alkaloid dose scale here was always logarithmic.
The sequence of treatments in this study was not random. Rather, the ED50 for opiate alkaloid alone was determined. After this, combination experiments were conducted in which the carbazole racemic 6-chloro-α-methyl-carbazole-2-acetic acid, was administered at a constant dose and the ED50 of opiate alkaloid was redetermined in the presence of racemic 6-chloro-α-methyl-carbazole-2-acetic acid.
Inhibition of phenylquinone induced writhing by oxycodone potentiated by 6-chloro-α-methyl carbazole-2-acetic acid was determined by the procedure described hereinabove with one change. […] This transformation consisted of the [(square root of the number of writhes)+(square root of the number of writhes+1)] and is commonly employed with data that are distributed in a Poisson distribution.
Inhibition of phenylquinone induced writhing by morphine potentiated by 6-chloro-α-methyl-carbazole-2-acetic acid was determined by the procedure described hereinabove with one further change. […] This analysis was carried out on the set of values representing the percent of inhibition of writhing observed at each dose, as defined above, in any given assay.

[1] = Table I, regression analysis and Fieller's Theorem
[2] = Table III, square-root transformed writhes
[3] = Table V, Litchfield and Wilcoxon

In the case of `CC(C(=O)O)c1ccc2c(c1)[nH]c1ccc(Cl)cc12` (racemic) [Compound A, 6-chloro-α-methyl-carbazole-2-acetic acid], the “ED50 (95% Conf. Limits)” value [1] is reported as 48.8 (25.7-72.0) mg/kg, the “Oral ED50 (95% Confidence Limits)” value is reported as 48.8 (25.7-72.0) and the “ED50 (95% Conf. Limits)” value [2] is reported as 41.9 (33.5-50.0) mg/kg. For the same molecule, the “Oral Ed50” value (Table IV) was 41.9(33.5-50.0), the “ED50 (95% Conf. Limits)” value [3] was 54(27-108) mg/kg and the “Oral Ed50” value (Table VI) was 54(27-108). The “% Inhibition” value (oral dose 25) was 17% and 18% and 29%, the “No. Writhing Episodes” value (oral dose 25) was 91 and 103 and 86 and the “% Inhibition” value (oral dose 50) was 58% and 48% and 51%. The “No. Writhing Episodes” value (oral dose 50) was 47 and 66 and 59, the “% Inhibition” value (oral dose 100) was 87% and 73% and 74% and the “% Inhibition” value (oral dose 200) was 96% and 90% and 91%.

In the case of `COc1ccc2c3c1O[C@H]1[C@@H](O)C=C[C@H]4[C@@H](C2)N(C)CC[C@@]341` [Codeine, codeine], the “ED50 (95% Conf. Limits)” value [1] is reported as 9.2 (6.6-11.9) mg/kg, the “Oral ED50 (95% Confidence Limits)” value is reported as 9.2 (6.6-11.9) and the “% Inhibition” value (oral dose 5) is reported as 19%. The “No. Writhing Episodes” value (oral dose 5) was 92, the “% Inhibition” value (oral dose 10) was 62% and the “No. Writhing Episodes” value (oral dose 10) was 43. The “% Inhibition” value (oral dose 20) was 86%, the “No. Writhing Episodes” value (oral dose 20) was 16 and the “% Inhibition” value (oral dose 40) was 98%. For the same molecule, the “No. Writhing Episodes” value (oral dose 40) was 2.

For `CN1CC[C@]23c4c5ccc(O)c4O[C@H]2[C@@H](O)C=C[C@H]3[C@H]1C5` [Morphine, morphine], the “ED50 (95% Conf. Limits)” value [3] was 2.5(1-4) mg/kg, the “Oral Ed50” value (Table VI) was 2.5(1-4) and the “% Inhibition” value (oral dose 1.25) was 21%. The “% Inhibition” value (oral dose 2.5) was 47%, the “% Inhibition” value (oral dose 5) was 83% and the “% Inhibition” value (oral dose 10) was 95%.

In the case of `COc1ccc2c3c1O[C@H]1C(=O)CC[C@@]4(O)[C@@H](C2)N(C)CC[C@]314` [Oxycodone, oxycodone], the “ED50 (95% Conf. Limits)” value [2] is reported as 0.25 (0.19-0.32) mg/kg, the “Oral Ed50” value (Table IV) is reported as 0.25(0.19-0.32) and the “% Inhibition” value (oral dose 0.125) is reported as 23%. For the same molecule, the “No. Writhing Episodes” value (oral dose 0.125) was 87, the “% Inhibition” value (oral dose 0.25) was 43% and the “No. Writhing Episodes” value (oral dose 0.25) was 64. The “% Inhibition” value (oral dose 0.5) was 73%, the “No. Writhing Episodes” value (oral dose 0.5) was 31 and the “% Inhibition” value (oral dose 1) was 88%. For the same molecule, the “No. Writhing Episodes” value (oral dose 1) was 14, the “% Inhibition” value (oral dose 2) was 96% and the “No. Writhing Episodes” value (oral dose 2) was 5.
